Measured values published in ChEMBL document CHEMBL3779822, “Indolyl-3-ethanone-α-thioethers: A promising new class of non-toxic antimalarial agents” (Eur J Med Chem, 2016).

Legend:
Plasmodium falciparum = experiment: Antiplasmodial activity against Plasmodium falciparum 3D7 infected in human erythrocytes assessed as inhibition of parasite growth after 48 hrs by parasite lactate dehydrogenase assay; format: functional, organism-based; conditions: 3D7, 48 h
HeLa = experiment: Growth inhibition of human HeLa cells after 48 hrs by resazurin assay; format: cell-based
[1] = Selectivity index, ratio if IC50 for human HeLa cells to IC50 for Plasmodium falciparum 3D7; format: functional

Compound	IC50 (Plasmodium falciparum)	IC50 (HeLa)	Ratio IC50 [1]
O=C(COc1ccccc1)c1c[nH]c2ccccc12	> 500 µM	> 500 µM	
O=C(CSc1ccc(Br)cc1)c1c[nH]c2ccc(Cl)cc12	0.09 µM	> 500 µM	5556
CC(SCC(=O)c1c[nH]c2ccccc12)c1ccccc1 (stereo not drawn)	122 µM	76 µM	1
CC(C)(C)c1ccc(SCC(=O)c2c[nH]c3ccccc23)cc1	8.9 µM	> 500 µM	56
O=C(CSCc1ccc(Br)cc1)c1c[nH]c2ccccc12	> 500 µM	> 500 µM	
O=C(CSc1ccc(Br)cc1)c1c[nH]c2c(F)cccc12	2.4 µM	> 500 µM	208
O=C(CNc1ccccc1)c1c[nH]c2ccccc12	73 µM	> 500 µM	7
O=C(CSCc1ccc(F)cc1)c1c[nH]c2ccccc12	58 µM	> 500 µM	9
O=C(CSCc1cccc(Br)c1)c1c[nH]c2ccccc12	13 µM	35 µM	3
O=C(CSc1ccccc1Cl)c1c[nH]c2ccccc12	> 500 µM	> 500 µM	
O=C(CSc1ccc(Br)cc1)c1c[nH]c2c(I)cccc12	45 µM	56 µM	1
O=C(CSCc1ccc(Cl)cc1)c1c[nH]c2ccccc12	> 500 µM	> 500 µM	
O=C(CSc1ccc(Br)cc1)c1c[nH]c2ccccc12	1.3 µM	> 500 µM	385
O=C(CSc1ccc(Br)cc1)c1c[nH]c2cc(F)ccc12	1.3 µM	> 500 µM	385
Cn1cc(C(=O)CSc2ccc(Br)cc2)c2ccccc21	15 µM	> 500 µM	33
CN(C)c1ccc(SCC(=O)c2c[nH]c3ccccc23)cc1	105 µM	60 µM	1
Cc1ccc(SCC(=O)c2c[nH]c3ccccc23)cc1	19 µM	> 500 µM	26
O=C(CSCCc1ccccc1)c1c[nH]c2ccccc12	7.8 µM	14 µM	2
O=C(CSc1ccc(Br)cc1)c1c[nH]c2ccc(Br)cc12	0.12 µM	> 500 µM	4167

Compound	IC50 (Plasmodium falciparum)	IC50 (HeLa)	Ratio IC50 [1]
O=C(CSc1ccc([N+](=O)[O-])cc1)c1c[nH]c2ccccc12	0.24 µM	> 500 µM	2083
O=C(COc1ccc(Cl)cc1)c1c[nH]c2ccccc12	1.8 µM	> 500 µM	278
O=C(CSc1ccc(Br)cc1)c1c[nH]c2cc(Br)c(F)cc12	19 µM	> 500 µM	26
O=C(CSc1ccccc1)c1c[nH]c2ccccc12	29 µM	284 µM	10
O=C(CSc1ccc(Br)cc1)c1c[nH]c2cc(Br)ccc12	279 µM	> 500 µM	2
O=C(CSc1cccc(Cl)c1)c1c[nH]c2ccccc12	44 µM	> 500 µM	11
O=C(CSCc1ccccc1)c1c[nH]c2ccccc12	131 µM	> 500 µM	4
Cc1cc(Br)c2[nH]cc(C(=O)CSc3ccc(Br)cc3)c2c1	1.8 µM	224 µM	124
O=C(CSc1ccc(Br)cc1)c1c[nH]c2cc(Cl)ccc12	2.8 µM	> 500 µM	179
O=C(CSc1ccc(Br)cc1)c1c[nH]c2cc(Cl)c(F)cc12	12 µM	> 500 µM	42
Nc1ccc(SCC(=O)c2c[nH]c3ccccc23)cc1	20 µM	36 µM	2
O=C(CSc1ccc(Br)cc1)c1cn(Cc2ccccc2)c2ccccc12	2.7 µM	> 500 µM	185
O=C(CSc1ccc(F)cc1)c1c[nH]c2ccccc12	1.7 µM	> 500 µM	294
O=C(CSc1ccc(Cl)cc1)c1c[nH]c2ccccc12	1.4 µM	> 500 µM	357
O=C(CNc1ccc(Cl)cc1)c1c[nH]c2ccccc12	29 µM	16 µM	0.6
Cc1ccccc1SCC(=O)c1c[nH]c2ccccc12	12 µM	> 500 µM	42
O=C(CSc1cccc(Br)c1)c1c[nH]c2ccccc12	106 µM	> 500 µM	5
O=C(CSc1cccc(F)c1)c1c[nH]c2ccccc12	3.9 µM	> 500 µM	128
CC[C@H]1CN2CCc3cc(OC)c(OC)cc3[C@@H]2C[C@@H]1C[C@H]1NCCc2cc(OC)c(OC)cc21 [EMETINE]		0.37 µM	
